This is an account of results in patent US10442805B2, “Polymorphic forms of a hydrochloride salt of (S)-2-(1-(9H-purin-6-ylamino)propyl)-5-fluoro-3-phenylquinazolin-4(3H)-one” (GILEAD CALISTOGA LLC, priority 2013, dated 2019).

What all share (format): physicochemical
Series [1] is described as follows: Form screen on the HCl salt: solid form by XRPD after suspension in solvent. The method, then:
XRPD patterns were collected at room temperature, using a PANalytical X'Pert MPD Pro Powder X-Ray Diffractometer configured with reflectance stage with spinning, data acquisition range: 2-40 degrees 2θ, Copper (Cu) anode; Kα1/Kα2 radiation; tube current 40 mA; tube tension 45 kV; automatic divergence and anti-scatter slits. Samples were prepared for analysis by distributing solid material as a thin layer on a silicon holder. Each holder was mounted on a reflectance/transmittance stage and rotated during data acquisition. […] After 7 days, a sample of the suspension was removed from the vial/flask, and the sample was centrifuged and filtered to separate the solids from the liquid in the sample. The isolated solids were characterized by XRPD (collected at room temperature). The filtrate was retained. After about 25 days, another sample was removed from the vial/flask, and the sample was centrifuged and filtered to separate the solids from the liquid in the sample. The isolated solids were characterized by XRPD (collected at room temperature).

The nature of series [2]: Hydrate screen on the HCl salt: solid form by XRPD in ethanol/water (effect of water on stability of Form I). The settings on record: for changes in XRPD in the hydrate screen: water/ethanol system. How it is done:
XRPD patterns were collected at room temperature, using a PANalytical X'Pert MPD Pro Powder X-Ray Diffractometer configured with reflectance stage with spinning, data acquisition range: 2-40 degrees 2θ, Copper (Cu) anode; Kα1/Kα2 radiation; tube current 40 mA; tube tension 45 kV; automatic divergence and anti-scatter slits. Samples were prepared for analysis by distributing solid material as a thin layer on a silicon holder. Each holder was mounted on a reflectance/transmittance stage and rotated during data acquisition.
(§1) Polymorphic Form I of a hydrochloride salt of (S)-2-(1-(9H-purin-6-ylamino)propyl)-5-fluoro-3-phenylquinazolin-4(3H)-one, i.e., Compound of Formula (I), prepared according to the protocols described in Example 1 above was mixed with ethanol and water. XRPDs were taken on Days 5 and 21.

Series [3] in a line: Hydrate screen on the HCl salt: solubility in ethanol/water. The settings on record: ethanol/water mixture, aqueous with cosolvent or surfactant or cyclodextrin, thermodynamic from solid; for solubility at 5 days: solubility column beside XRPD after 5 days.
Description: as §1

A short description of series [4]: Dynamic vapour sorption (DVS). The settings on record: 25° C.
Series [5] in a line: XRPD of solvate forms after drying or heating. The method, then: For Pattern 1, shown in FIGS. 14A and 15B, 50 mg of the hydrochloride salt of the Compound Formula (I) was suspended in propyl acetate (3.5 mL, 70 vol) and held at 50° C. for 15 minutes, after which 1.1 eq of 12M HCl (11.6 μL) was added and the sample slowly cooled from 50° C. to 5° C. at 0.1° C. per minute. The XRPD pattern shown in FIG. 14A was observed while the sample was wet. […] FIG. 14C depicts the XRPD pattern after further heating at about 145° C. for about 16 hours (Pattern 9′).
For the toluene solvate, shown in FIG. 20 (wet), 50 mg of the polymorphic Form I of a hydrochloride salt of the Compound of Formula (I) was treated with toluene (3.5 mL, 70 vols), producing a suspension at 50° C. This suspension was matured between 50° C. and room temperature (8 hours per cycle) for three days.

Where [6] appears, read: 114 mg in tetrahydrofuran (THF).
The mark [7] stands for this setting: 117 mg in isopropyl acetate (IPAc).
[8] abbreviates: 140 mg in ethyl acetate (EtOAc).
The mark [9] stands for this setting: 149 mg in methyl ethyl ketone (MEK).
Setting [10] is: 150 mg in methyl t-butyl ether (MTBE).
[11] abbreviates: 154 mg in 2-methyltetrahydrofuran (2-MeTHF).
[12] abbreviates: 160 mg in dichloromethane (DCM).
Where [13] appears, read: 176 mg in methyl isobutyl ketone (MIBK).

For `CC[C@H](Nc1ncnc2[nH]cnc12)c1nc2cccc(F)c2c(=O)n1-c1ccccc1` [(S)-2-(1-(9H-purin-6-ylamino)propyl)-5-fluoro-3-phenylquinazolin-4(3H)-one], the “XRPD after 7 days” value in series [1] (setting [6]) is “new”; in series [1] (setting [7]) it was “Form I”; in series [1] (119 mg in water), “Form I”; in series [1] (120 mg in acetonitrile (ACN)), “Form I”; in series [1] (125 mg in acetone), “new”; in series [1] (132 mg in 2-propanol) it was “Form I”. Also, the “XRPD after 7 days” value is reported as “Form I” in series [1] (setting [8]); “new” in series [1] (setting [9]); “Form I” in series [1] (setting [10]); “Form V” in series [1] (setting [11]); “Form I” in series [1] (155 mg in methanol); “Form I” in series [1] (157 mg in Ethanol). In addition, the “XRPD after 7 days” value is recorded as “new” in series [1] (setting [12]), “Form I” in series [1] (163 mg in n-heptane) and “Form I” in series [1] (setting [13]). The “XRPD after about 25” value in series [1] (setting [6]) is recorded as “Form IX”; in series [1] (setting [7]), “Form I”; in series [1] (119 mg in water), “Form I”; in series [1] (120 mg in acetonitrile (ACN)), “Form I”; in series [1] (125 mg in acetone) it was “Form X”; in series [1] (132 mg in 2-propanol), “mixture”. The “XRPD after about 25” value is on record as “Form I” in series [1] (setting [8]); “Form VII” in series [1] (setting [9]); “Form I” in series [1] (setting [10]); “Form V” in series [1] (setting [11]); “Form I” in series [1] (155 mg in methanol); “Form I” in series [1] (157 mg in Ethanol). Also, the “XRPD after about 25” value in series [1] (setting [12]) is “Form VIII”; in series [1] (163 mg in n-heptane), “Form I”; in series [1] (setting [13]), “Form VI”; in series [1] (10 g in 1-butanol), “Form XIII”; in series [1] (10 g in 1-propanol), “Form XII”; in series [1] (10 g in 2-propanol), “Form XI”. In addition, the “XRPD after 5 days” value in series [2] (Ethanol/water aw 0.2), in series [2] (Ethanol/water aw 0.3), in series [2] (Ethanol/water aw 0.4), in series [2] (Ethanol/water aw 0.5), in series [2] (Ethanol/water aw 0.6) and in series [2] (Ethanol/water aw 0.7) was “Form I” in each case. The “XRPD after 5 days” value in series [2] (Ethanol/water aw 0.8) was “Form I”. In addition, the “XRPD after 21 days” value in series [2] (Ethanol/water aw 0.2), in series [2] (Ethanol/water aw 0.3), in series [2] (Ethanol/water aw 0.4), in series [2] (Ethanol/water aw 0.5), in series [2] (Ethanol/water aw 0.6) and in series [2] (Ethanol/water aw 0.7) was “Form I” each time. Moreover, the “XRPD after 21 days” value in series [2] (Ethanol/water aw 0.8) is recorded as “Form I”. In addition, the “changes in XRPD in the hydrate screen” value in series [2] (all water activities except 0.9) is on record as “no changes in XRPD”; in series [2] (water activity 0.9) it was “converted some of the hydrochloride salt to polymorphic Form I of the free form”. In addition, the solubility at 21 days in series [3] (Ethanol/water aw 0.2) came to 60 mg/mL; in series [3] (Ethanol/water aw 0.3), 33 mg/mL; in series [3] (Ethanol/water aw 0.4), 66 mg/mL; in series [3] (Ethanol/water aw 0.5), 93 mg/mL; in series [3] (Ethanol/water aw 0.6), 183 mg/mL; in series [3] (Ethanol/water aw 0.7), 223 mg/mL. Moreover, the solubility at 21 days amounted to 174 mg/mL in series [3] (Ethanol/water aw 0.8) and 44 mg/mL in series [3] (Ethanol/water aw 0.9). For the same compound, the solubility at 5 days in series [3] (Ethanol/water aw 0.2) amounted to 26 mg/mL; in series [3] (Ethanol/water aw 0.3) it was 47 mg/mL; in series [3] (Ethanol/water aw 0.4), 57 mg/mL; in series [3] (Ethanol/water aw 0.5), 72 mg/mL. The “DVS: mass change as a function of RH” value in series [4] was “minor mass increase”.

Regarding `CC[C@H](Nc1ncnc2[nH]cnc12)c1nc2cccc(F)c2c(=O)n1-c1ccccc1` [Pattern 1, (S)-2-(1-(9H-purin-6-ylamino)propyl)-5-fluoro-3-phenylquinazolin-4(3H)-one], in series [5] (drying in a vacuum oven at about 25° C. for 6 days), the “XRPD pattern after drying” value is listed as “Pattern 9”.

On to `CC[C@H](Nc1ncnc2[nH]cnc12)c1nc2cccc(F)c2c(=O)n1-c1ccccc1` [Pattern 9, (S)-2-(1-(9H-purin-6-ylamino)propyl)-5-fluoro-3-phenylquinazolin-4(3H)-one], for which the “XRPD pattern after further heating” value in series [5] (further heating at about 145° C. for about 16 hours) was “Pattern 9′”.

As for `CC[C@H](Nc1ncnc2[nH]cnc12)c1nc2cccc(F)c2c(=O)n1-c1ccccc1` [Toluene solvate, (S)-2-(1-(9H-purin-6-ylamino)propyl)-5-fluoro-3-phenylquinazolin-4(3H)-one], the XRPD upon drying result in series [5] (upon drying) was “mixture of Pattern 1 and Pattern 9′”.
